Measurements from patent US10294248B2, “Beta-lactamase inhibitors” (VenatoRx Pharmaceuticals, Inc., priority 2013, dated 2019).

Columns and labels:
[1] = biological target: T1, SHV-5 β-lactamase (Class A ESBL) (Klebsiella pneumoniae, UniProt P0A3M1); experiment: β-Lactamase inhibition, SHV-5; type: biochemical
T1 construct: made in house; host or cells: E. coli BL21(DE3)
How it was run: (§1)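 Read-out is the rate of β-lactam ring hydrolysis monitored by absorbance: 300 nm for imipenem with KPC-2 and 260 nm for cefotaxime with SHV-5. Recombinant native enzymes were first incubated with compound at 37 °C for 15 min. The IC50 is the inhibitor concentration that halves the initial hydrolysis rate.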

[2] = biological target: T2, KPC-2 β-lactamase (Class A carbapenemase) (Klebsiella pneumoniae, UniProt Q9F663); experiment: β-Lactamase inhibition, KPC-2; type: biochemical; conditions: imipenem substrate, 300 nm; 15 min preincubation at 37° C., PBS pH 7.4
T2 construct: made in house; host or cells: E. coli BL21(DE3)
T2 sequence (Q9F663 25-293, looked up): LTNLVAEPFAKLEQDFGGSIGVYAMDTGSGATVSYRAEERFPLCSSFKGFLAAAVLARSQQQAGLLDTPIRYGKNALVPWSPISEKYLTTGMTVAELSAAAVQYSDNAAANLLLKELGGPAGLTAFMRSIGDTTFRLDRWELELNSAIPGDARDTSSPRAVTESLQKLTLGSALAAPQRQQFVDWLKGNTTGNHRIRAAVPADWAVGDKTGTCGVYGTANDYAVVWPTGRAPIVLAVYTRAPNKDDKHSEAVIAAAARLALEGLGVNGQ
How it was run: as §1

[3] = biological target: T3, VIM-2 metallo-β-lactamase (Class B) (Pseudomonas aeruginosa, UniProt Q9K2N0); experiment: β-Lactamase inhibition, VIM-2; type: biochemical; conditions: nitrocefin 100 μM, 486 nm; 15 min preincubation at 37° C., PBS pH 7.4
T3 construct: made in house; host or cells: E. coli BL21(DE3)
How it was run: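 Purified VIM-2 (Q sepharose anion exchange, Hepes pH 7.5, >90% pure) was preincubated with inhibitor at 37 °C for 15 min, then nitrocefin added at 100 μM final. Absorbance at 486 nm was followed for 10 min; IC50 was taken from maximum hydrolysis rates relative to inhibitor-free controls.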

[4] = biological target: T4, p99 AmpC β-lactamase (Class C) (Enterobacter cloacae, UniProt P05364); experiment: β-Lactamase inhibition, p99 AmpC; type: biochemical
T4 construct: made in house; host or cells: E. coli BL21(DE3)
T4 sequence (P05364 21-381): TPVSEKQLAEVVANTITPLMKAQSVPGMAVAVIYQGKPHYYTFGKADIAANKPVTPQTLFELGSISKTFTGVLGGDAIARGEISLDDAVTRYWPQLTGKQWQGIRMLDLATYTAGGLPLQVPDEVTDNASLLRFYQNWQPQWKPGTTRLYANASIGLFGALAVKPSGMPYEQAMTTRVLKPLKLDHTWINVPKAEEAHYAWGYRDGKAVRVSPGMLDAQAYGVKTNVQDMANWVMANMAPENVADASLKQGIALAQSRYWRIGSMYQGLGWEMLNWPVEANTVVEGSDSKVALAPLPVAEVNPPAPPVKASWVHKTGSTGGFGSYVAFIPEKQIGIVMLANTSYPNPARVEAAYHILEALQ

[5] = biological target: T5, OXA-1 β-lactamase (Class D oxacillinase) (Escherichia coli, UniProt P13661); experiment: β-Lactamase inhibition, OXA-1; type: biochemical; conditions: nitrocefin 100 μM, 486 nm; 15 min preincubation at 37° C., PBS pH 7.4
T5 construct: made in house; host or cells: E. coli BL21(DE3)
T5 sequence (P13661 26-276): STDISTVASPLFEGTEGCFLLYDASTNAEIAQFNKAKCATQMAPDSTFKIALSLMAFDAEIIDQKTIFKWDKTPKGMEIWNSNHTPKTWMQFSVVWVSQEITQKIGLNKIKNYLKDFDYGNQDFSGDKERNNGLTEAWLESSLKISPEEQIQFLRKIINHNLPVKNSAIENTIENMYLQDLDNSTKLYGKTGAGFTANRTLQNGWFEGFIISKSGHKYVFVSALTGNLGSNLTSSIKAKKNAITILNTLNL
How it was run: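 Untagged enzyme from E. coli BL21(DE3), purified by Capto S then Superdex 75; 15 min 37 °C preincubation with inhibitor; KPC-2 read with imipenem at 300 nm, SHV-5 with cefotaxime at 260 nm, OXA-1 with nitrocefin 100 μM final at 486 nm; 10 min kinetic read; IC50 vs uninhibited wells.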

[6] = tested on: E. coli ESBL4 expressing CTX-M-15; experiment: Broth microdilution MIC, E. coli ESBL4 CTX-M-15; type: cell-based; conditions: fixed 4 μg/mL ceftazidime; CAMHB, 16-20 hours at 37° C.
How it was run: (§2)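 Potentiation MIC by CLSI broth microdilution in cation-adjusted Mueller Hinton broth. Test compound was 2-fold serially diluted from 32 to 0.25 μg/ml with a β-lactam held at a static 4 μg/ml. After 16-20 h at 37° C, MIC was read visually.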

[7] = tested on: E. cloacae 144200 expressing Class C P99 AmpC; experiment: Broth microdilution MIC, E. cloacae 144200 p99 AmpC; type: cell-based; conditions: fixed 4 μg/mL ceftazidime; CAMHB, 16-20 hours at 37° C.
How it was run: as §2

[8] = tested on: K. pneumoniae 156319 expressing KPC-3; experiment: Broth microdilution MIC, K. pneumoniae 156319 KPC-3; type: cell-based; conditions: fixed 4 μg/mL meropenem; CAMHB, 16-20 hours at 37° C.
How it was run: as §2

[9] = tested on: P. aeruginosa Ps296 expressing VIM-2; experiment: Broth microdilution MIC, P. aeruginosa Ps296 VIM-2; type: cell-based; conditions: fixed 4 μg/mL meropenem; CAMHB, 16-20 hours at 37° C.
How it was run: as §2

[10] = tested on: K. pneumoniae A-1797 expressing KPC-2 and VIM-4; experiment: Broth microdilution MIC, K. pneumoniae A-1797 KPC-2/VIM-4; type: cell-based; conditions: fixed 4 μg/mL meropenem; CAMHB, 16-20 hours at 37° C.
How it was run: as §2

[11] = tested on: S. aureus MSSA-7 producing penicillinase PC-1; experiment: Broth microdilution MIC, S. aureus MSSA-7 PC-1; type: cell-based; conditions: fixed 4 μg/mL piperacillin; CAMHB, 16-20 hours at 37° C.
How it was run: as §2

T1 sequence (P0A3M1 22-286): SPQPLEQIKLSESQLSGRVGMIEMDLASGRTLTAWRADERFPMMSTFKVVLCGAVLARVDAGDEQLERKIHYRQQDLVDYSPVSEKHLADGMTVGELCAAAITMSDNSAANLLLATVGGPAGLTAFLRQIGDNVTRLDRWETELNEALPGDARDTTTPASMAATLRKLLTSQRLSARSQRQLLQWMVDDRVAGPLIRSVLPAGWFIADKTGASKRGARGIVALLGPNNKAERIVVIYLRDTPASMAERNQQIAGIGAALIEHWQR

Row | SMILES | IC50 [1] [nM] | IC50 [2] [nM] | IC50 [3] [nM] | IC50 [4] [nM] | IC50 [5] [nM] | MIC of example compound in presence of fixed β-lactam: Fixed CAZ, E. coli ESBL4 CTX-M-15 [6] | MIC of example compound in presence of fixed β-lactam: Fixed CAZ, E. cl. 144200 p99 AmpC [7] | MIC of example compound in presence of fixed β-lactam: Fixed Mero, K. P. 156319 KPC-3 [8] | MIC of example compound in presence of fixed β-lactam: Fixed Mero, P. aerug. Ps296 VIM-2 [9] | MIC of example compound in presence of fixed β-lactam: Fixed Mero, K. P. A-1797 KPC-2 VIM-4 [10] | MIC of example compound in presence of fixed β-lactam: Fixed Pip, S. aureus MSSA-7 PC-1 [11]
1 | O=C(O)c1cccc2c1OB(O)[C@@H](NC(=O)C1CNC1)C2 [Example 46, (R)-3-(azetidine-3-carboxamido)-2-hydroxy-3,4-dihydro-2H-benzo[e][1,2]oxaborinine-8-carboxylic acid] | < 100 | 100 to 1000 | 1000 to 10000 | < 100 | 100 to 1000 | C (the MIC in the presence of <4 μg/mL of a β-lactamase inhibitor) | C (the MIC in the presence of <4 μg/mL of a β-lactamase inhibitor) | B (the MIC in the presence of between 8 and 32 μg/mL of a β-lactamase inhibitor) | A (an MIC of the fixed β-lactam antibiotic in the presence of >32 μg/mL of a β-lactamase inhibitor) | A (an MIC of the fixed β-lactam antibiotic in the presence of >32 μg/mL of a β-lactamase inhibitor) | C (the MIC in the presence of <4 μg/mL of a β-lactamase inhibitor)
2 | CN(C)c1ccc(NC(=O)N2CC(C(=O)N[C@H]3Cc4cccc(C(=O)O)c4OB3O)C2)cc1 [Example 47, (R)-3-(1-(4-(dimethylamino)phenylcarbamoyl)azetidine-3-carboxamido)-2-hydroxy-3,4-dihydro-2H-benzo[e][1,2]oxaborinine-8-carboxylic acid] | < 100 | < 100 | 100 to 1000 | < 100 | 100 to 1000 | C (the MIC in the presence of <4 μg/mL of a β-lactamase inhibitor) | C (the MIC in the presence of <4 μg/mL of a β-lactamase inhibitor) | C (the MIC in the presence of <4 μg/mL of a β-lactamase inhibitor) | C (the MIC in the presence of <4 μg/mL of a β-lactamase inhibitor) | B (the MIC in the presence of between 8 and 32 μg/mL of a β-lactamase inhibitor) | B (the MIC in the presence of between 8 and 32 μg/mL of a β-lactamase inhibitor)
3 | O=C(O)c1cccc2c1OB(O)[C@@H](NC(=O)C1CN(c3ncccn3)C1)C2 [Example 48, (R)-2-hydroxy-3-(1-(pyrimidin-2-yl)azetidine-3-carboxamido)-3,4-dihydro-2H-benzo[e][1,2]oxaborinine-8-carboxylic acid] | < 100 | < 100 | 1000 to 10000 | < 100 | < 100 | C (the MIC in the presence of <4 μg/mL of a β-lactamase inhibitor) | C (the MIC in the presence of <4 μg/mL of a β-lactamase inhibitor) | C (the MIC in the presence of <4 μg/mL of a β-lactamase inhibitor) | C (the MIC in the presence of <4 μg/mL of a β-lactamase inhibitor) | B (the MIC in the presence of between 8 and 32 μg/mL of a β-lactamase inhibitor) | C (the MIC in the presence of <4 μg/mL of a β-lactamase inhibitor)
4 | NC1(C(=O)N[C@H]2Cc3cccc(C(=O)O)c3OB2O)CCNCC1 [Example 49, 3-[(4-Amino-piperidine-4-carbonyl)-amino]-2-hydroxy-3,4-dihydro-2H-benzo[e][1,2]oxaborinine-8-carboxylic acid] | < 100 | < 100 | 1000 to 10000 | < 100 | < 100 | C (the MIC in the presence of <4 μg/mL of a β-lactamase inhibitor) | C (the MIC in the presence of <4 μg/mL of a β-lactamase inhibitor) | C (the MIC in the presence of <4 μg/mL of a β-lactamase inhibitor) | B (the MIC in the presence of between 8 and 32 μg/mL of a β-lactamase inhibitor) | A (an MIC of the fixed β-lactam antibiotic in the presence of >32 μg/mL of a β-lactamase inhibitor) | C (the MIC in the presence of <4 μg/mL of a β-lactamase inhibitor)
5 | O=C(O)c1cccc2c1OB(O)[C@@H](NC(=O)C1CNCCN1)C2 (stereo partly drawn) [Example 50, 2-Hydroxy-3-[(piperazine-2-carbonyl)-amino]-3,4-dihydro-2H-benzo[e][1,2]oxaborinine-8-carboxylic acid] | < 100 | < 100 | 1000 to 10000 | < 100 | < 100 | C (the MIC in the presence of <4 μg/mL of a β-lactamase inhibitor) | C (the MIC in the presence of <4 μg/mL of a β-lactamase inhibitor) | C (the MIC in the presence of <4 μg/mL of a β-lactamase inhibitor) | C (the MIC in the presence of <4 μg/mL of a β-lactamase inhibitor) | A (an MIC of the fixed β-lactam antibiotic in the presence of >32 μg/mL of a β-lactamase inhibitor) | C (the MIC in the presence of <4 μg/mL of a β-lactamase inhibitor)
6 | CN1CCC(C(=O)N[C@H]2Cc3cccc(C(=O)O)c3OB2O)(N(C)C)CC1 [Example 51, 3-[(4-Dimethylamino-1-methyl-piperidine-4-carbonyl)-amino]-2-hydroxy-3,4-dihydro-2H-benzo[e][1,2]oxaborinine-8-carboxylic acid] | 1000 to 10000 | < 100 | 1000 to 10000 | < 100 | 100 to 1000 | C (the MIC in the presence of <4 μg/mL of a β-lactamase inhibitor) | C (the MIC in the presence of <4 μg/mL of a β-lactamase inhibitor) | C (the MIC in the presence of <4 μg/mL of a β-lactamase inhibitor) | C (the MIC in the presence of <4 μg/mL of a β-lactamase inhibitor) | A (an MIC of the fixed β-lactam antibiotic in the presence of >32 μg/mL of a β-lactamase inhibitor) | C (the MIC in the presence of <4 μg/mL of a β-lactamase inhibitor)
